Laboratory results as given in patent US7122569B2, “Ethylene glycol esters as photoactive agents” (priority 1997, dated 2006).

Legend:
L1210 cells [1] = test: Uptake of photosensitizer by L1210 cells (fluorescence of cell lysates); assay type: cell-based, murine; conditions: 3 μg/ml, 10% fetal bovine serum
Experimental: BPD-MA or B-EA6 were incubated at 3 μg/ml in the presence of 10% fetal bovine serum with 10^7/mL of L1210 cells, a murine leukemia cell line. Intracellular content of the photosensitizers was measured by fluorescence of cell lysates at various times. […] The time course of uptake is shown in FIG. 2 as a percentage of cell content at 60 min by which time uptake had reached a maximum in both cases. As shown, B-EA6 is taken up more rapidly and reaches […] of its maximum concentration after only 5 min and reached its maximum uptake within 15 min.

L1210 cells [2] = test: Release of photosensitizer from preloaded L1210 cells; assay type: cell-based, murine; conditions: preloaded at 3 μg/ml for 1 hr, drug-free medium with 10% fetal bovine serum; compared with BPD-MA
Experimental: The kinetics of release of these drugs from L1210 cells was measured by preloading the cells at 3 μg/ml for 1 hr and then placing the cells in drug-free medium containing 10% fetal bovine serum. Remaining intracellular drug content was measured at various time points by lysing the cells and measuring fluorescence.

[3] = In vivo pharmacokinetics, drug content of tissues by fluorescence in tissue extracts; parameters: species or system DBA/2 mice; conditions: 4 mg/kg intravenous
Experimental: Either BPD-MA or B-EA6 was administered by intravenous injection into DBA/2 mice at a dose of 4 mg/kg using 3 mice per time point. The drug content of plasma, skin, liver and kidney was determined by fluorescence in the tissue extracts.

[4] = system: M1 rhabdomyosarcoma tumors; test: PDT bioassay in mouse tumor model, tumor-free on day 7; assay type: in vivo, DBA/2 mice
Experimental: The pharmacokinetics were also determined using an in vivo mouse tumor model. Groups of 10 DBA/2 mice containing M1 rhabdomyosarcoma tumors were injected intravenously with a liposomal formulation of BPD-MA at various dosages of 0.75–1.5 mg/kg. The tumors were irradiated with 690 nm laser light at 50 or 150 J/cm^2 at various times after injection.

L1210 cells [5] = test: LD50 / photocytotoxicity on L1210 cells, 9 J/cm^2 broad spectrum light, MTT assay; assay type: cell-based, murine
Experimental: Either B-EA6 or BPD-MA was incubated for 1 hr with L1210 cells at a range of concentrations and exposed to 9 J/cm^2 broad spectrum light. This determination was made in the absence of serum and in the presence of 10% serum.
The ability of B-EA6 to exert a cytotoxic effect on L1210 cells in vitro was further tested by incubating the cells with B-EA6 at various concentrations for 1 hr in the absence of serum. After excess drug was removed, the cells were exposed to 9 J/cm^2 broad spectrum light (380–750 nm) and cell survival was determined by the MTT assay (Mosmann, T. et al. J Immunol Meth (1983) 65:55–63). The percentage of killed cells was calculated in reference to survival of cells exposed to light only.

splenocytes = conditions: 3 μg/ml, after an hour of incubation
Experimental: The ability of L1210 cells to accumulate B-EA6 was compared to the ability of splenocytes to do so. B-EA6 at 3 μg/ml was incubated with each cell type and the cell content of B-EA6 was determined by fluorescence in cell lysates.

[6] = system: M1 (rhabdomyosarcoma) tumor; test: Tumor selectivity of PDT in mice bearing subcutaneous M1 tumor; assay type: in vivo, DBA/2 mice; conditions: 0.75 mg/kg liposomal IV, 15 min, 50 J/cm^2 690 nm
Experimental: Mice were administered 0.75 mg/kg of B-EA6 in a liposomal formulation intravenously. After 15 min, a 1 cm area which included a 5 mm diameter tumor was exposed to 50 J/cm^2 of 70 mW light of 690 nm wavelength from an argon-pumped dye laser.

[7] = system: DNFB-induced ear swelling; test: Contact hypersensitivity (CHS) assay, DNFB ear swelling; assay type: in vivo, Balb/C mice; conditions: 1 mg/kg liposomal IV
Experimental: Balb/C mice (5–8 mice per group) were tested using the delayed skin photosensitivity assay also called the contact hypersensitivity (CHS) assay. The mice were painted in the flank with the sensitizing agent dinitrofluorobenzene (DNFB) and 5 days later, one ear is challenged with DNFB, while the other serves as a control. The swelling is an indicator of immune response. […] The swelling in both cases was only approximately 60% of the that shown in mice without treatment.

MHC Class I = test: Low-dose PDT, expression of cell surface antigens by peritoneal macrophages: MHC Class I; assay type: cell-based, murine; conditions: BPD-MA 2.5 ng/ml, B-EA6 0.5 ng/ml; 690 nm LED 5 J/cm^2, 24 hr later
Experimental: (§1) In an additional assay to determine immunomodulation, murine peritoneal macrophages were isolated, purified and activated by recombinant interferon-γ (100 U/ml). […] Expression levels of MHC I, MHC II, CD54, CD80 and CD86 were determined 24 hr later using FITC conjugated antibodies and a cell sorter. The results are shown in Table 4 for B-EA6 at 0.5 ng/ml in comparison to similar experiments using BPD-MA at 2.5 ng/ml. The results in the table are given as a percent of expression as compared to cells treated with light only. As shown, BPD-MA and B-EA6 were both able to reduce expression of MHC II, but not the remaining surface markers. Thus, although B-EA6 has advantageous pharmacokinetics, it retains the immunomodulatory activity of BPD-MA and other compounds of this group.

MHC Class II = test: Low-dose PDT, expression of cell surface antigens by peritoneal macrophages: MHC Class II; assay type: cell-based, murine; conditions: BPD-MA 2.5 ng/ml, B-EA6 0.5 ng/ml; 690 nm LED 5 J/cm^2, 24 hr later
Experimental: as §1

CD54 (ICAM-1) = test: Low-dose PDT, expression of cell surface antigens by peritoneal macrophages: CD54; assay type: cell-based, murine; conditions: BPD-MA 2.5 ng/ml, B-EA6 0.5 ng/ml; 690 nm LED 5 J/cm^2, 24 hr later
Experimental: as §1

CD80 (B7-1) = test: Low-dose PDT, expression of cell surface antigens by peritoneal macrophages: CD80; assay type: cell-based, murine; conditions: BPD-MA 2.5 ng/ml, B-EA6 0.5 ng/ml; 690 nm LED 5 J/cm^2, 24 hr later
Experimental: as §1

CD86 (B7-2) = test: Low-dose PDT, expression of cell surface antigens by peritoneal macrophages: CD86; assay type: cell-based, murine; conditions: BPD-MA 2.5 ng/ml, B-EA6 0.5 ng/ml; 690 nm LED 5 J/cm^2, 24 hr later
Experimental: as §1

[8] = system: adjuvant-enhanced arthritis; test: Arthritis model, adjuvant-enhanced, PDT on days 0, 10, 20; assay type: in vivo, MRL-Ipr mice; conditions: 0.5 mg/kg liposomal IV, red light 80 J/cm^2 at 1 hr
Experimental: MRL-Ipr mice spontaneously develop arthritis; this was enhanced by intradermal injection of Freund's Adjuvant. Various numbers of MRL-Ipr mice were treated with PDT on days 0, 10, and 20 after injection of the adjuvant. […] The mice were observed and symptoms scored every 5 days for 30 days. The results are shown in FIG. 6 in comparison to mice similarly treated with BPD-MA and BPD-MB.

arterioles and venules = test: Mouse cremaster muscle model, effect on microvasculature; assay type: in vivo; conditions: 2 mg/kg IV, 25 J/cm^2 per 5 min
Experimental: The mouse cremaster muscle model was used. B-EA6 was administered intravenously at 2 mg/kg and starting at 5 and 15 min postinjection, surgically exposed arterioles and venules were irradiated with light at an intensity of 25 J/cm^2 per 5 min beginning at 5 min and 15 min after injection of the B-EA6. The vessels were measured as red blood column diameter as a percentage of controls.

C=Cc1c(C)c2cc3nc(cc4[nH]c(cc5nc(cc1[nH]2)C1(C)C5=CC=C(C(=O)OC)C1C(=O)OC)c(C)c4CCC(=O)OCCO)C(CCC(=O)OCCO)=C3C (centres unmarked) [B-EA6]
time to maximum uptake (L1210 cells [1]): ≤ 15 min | maximum concentration reached (intracellular content) (L1210 cells [1]; 10^7/mL L1210 cells): 145.9 ng/10^6 cells | initial release from cells (L1210 cells [2]): much more rapid | accumulation in skin ([3]; first 3 hr): does not | T½ (15 min-3 hours) Kidney ([3]; kidney): 48 min | T½ (15 min-3 hours) Liver ([3]; liver): 36 min | T½ (15 min-3 hours) Muscle ([3]; muscle): 11.1 h | T½ (15 min-3 hours) Plasma ([3]; plasma): 36 min | accumulation in plasma, liver or kidney ([3]; relative to 15 min postinjection): neither BPD-MA nor B-EA6 accumulated | T½ (15 min-3 hours) Skin ([3]; skin): 1.9 h | T½ (15 min-3 hours) Spleen ([3]; spleen): 48 min | Percent Tumor Free on Day 7 ([4]; 0.75 mg/kg liposomal IV, light 15 min post IV, 50 J/cm^2 690 nm): 50% | Percent Tumor Free on Day 7 ([4]; 0.75 mg/kg liposomal IV, light 30 min post IV, 50 J/cm^2 690 nm): 0% | Percent Tumor Free on Day 7 ([4]; 1.0 mg/kg liposomal IV, light 15 min post IV, 50 J/cm^2 690 nm): 90% | Percent Tumor Free on Day 7 ([4]; 1.0 mg/kg liposomal IV, light 30 min post IV, 50 J/cm^2 690 nm): 0% | Percent Tumor Free on Day 7 ([4]; 1.5 mg/kg liposomal IV, light 180 min post IV, 150 J/cm^2 690 nm): 0% | percentage of cells that did not survive (L1210 cells [5]; 15 ng/ml, no serum, 9 J/cm^2 light (380–750 nm), vs light only): ~100% | LD50, 10% serum (L1210 cells [5]; L1210 cells, 1 hr incubation, 9 J/cm^2 broad spectrum light, 10% serum): 19.7 ng/mL | percentage of killed cells (L1210 cells [5]; approximately 7 ng/ml, no serum, 9 J/cm^2 light (380–750 nm), vs light only): 80% | cell content of B-EA6 accumulated (splenocytes): less than 20 ng/10^6 cells | effect of PDT on surrounding normal skin [6]: did not affect the surrounding normal skin | effect of PDT on tumor [6]: effectively eliminated the tumor | ear swelling relative to mice without treatment ([7]; 15 J/cm^2 whole body light): approximately 60% | ear swelling relative to mice without treatment ([7]; ambient light): approximately 60% | MHC Class I expression, percent of cells treated with light only (MHC Class I): 100.4% | MHC Class II expression, percent of cells treated with light only (MHC Class II): 71.8% | CD54 (ICAM-1) expression, percent of cells treated with light only (CD54 (ICAM-1)): 106.9% | CD80 (B7-1) expression, percent of cells treated with light only (CD80 (B7-1)): 102.3% | CD86 (B7-2) expression, percent of cells treated with light only (CD86 (B7-2)): 92.2% | prevention of arthritis symptoms (incidence of clinical symptoms, bimaleolar ankle width) [8]: effective in preventing the sequellae of adjuvant injection | vessel closure (arterioles and venules; irradiation started after 15 min): permanent closure | vessel closure (arterioles and venules; irradiation started at 5 min): transient vessel closure
